Literature values as cited in patent US20250302889A1, “Ingestible Nutritive Compositions With Prebiotics, Probiotics, and Postbiotics” (First Day Life, Inc., priority 2024, published 2025).

Columns and labels:
[1] = 24 hours; probiotics 10^8 CFUs, diclofenac sodium 150 mg/kg, single dose
[2] = 24 hours after injection, vs carrageenan control group
[3] = 24 hours after injection, vs carrageenan control group; remark: listed apart in the source

For O=C(O)Cc1ccccc1Nc1c(Cl)cccc1Cl [diclofenac sodium], the inhibition of edema [1] is listed as “about 34%”, the “stair climbing activity (steps climbed)” value [2] is listed as “climbed significantly more steps” and the motility test score [3] is listed as “scored significantly higher”.
